Results taken from patent US8268862B2, “Sirtuin modulating compounds” (Sirtris Pharmaceuticals, Inc., priority 2007, dated 2012).

Target: T1, SIRT1 (Homo sapiens, UniProt Q96EB6)
T1 sequence (Q96EB6 1-747): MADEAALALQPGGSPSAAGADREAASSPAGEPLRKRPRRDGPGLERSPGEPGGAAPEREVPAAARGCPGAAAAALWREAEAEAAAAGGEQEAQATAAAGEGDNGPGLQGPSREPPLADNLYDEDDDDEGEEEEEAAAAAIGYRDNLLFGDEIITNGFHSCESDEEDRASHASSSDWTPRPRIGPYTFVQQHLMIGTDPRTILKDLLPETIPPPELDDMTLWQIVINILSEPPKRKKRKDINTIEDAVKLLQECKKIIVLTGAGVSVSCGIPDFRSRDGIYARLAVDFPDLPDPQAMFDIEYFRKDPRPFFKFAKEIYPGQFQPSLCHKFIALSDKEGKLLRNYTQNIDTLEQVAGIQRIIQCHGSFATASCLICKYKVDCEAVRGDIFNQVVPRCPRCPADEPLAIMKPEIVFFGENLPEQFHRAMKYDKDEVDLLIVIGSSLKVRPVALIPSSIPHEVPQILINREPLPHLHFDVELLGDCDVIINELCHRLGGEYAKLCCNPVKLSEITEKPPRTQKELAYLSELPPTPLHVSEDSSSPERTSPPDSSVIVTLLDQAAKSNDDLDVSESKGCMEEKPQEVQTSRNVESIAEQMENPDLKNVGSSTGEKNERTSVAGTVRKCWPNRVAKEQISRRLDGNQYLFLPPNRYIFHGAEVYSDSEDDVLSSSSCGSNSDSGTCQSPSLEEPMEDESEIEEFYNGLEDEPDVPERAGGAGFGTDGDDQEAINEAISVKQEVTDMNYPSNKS
Test: mass spectrometry based SIRT1 deacetylation assay (activation)
Assay type: biochemical
Conditions: 0.5 μM peptide substrate, 120 μM βNAD+, 10 nM SIRT1, 25 min at 25° C.; for EC1.5 (concentration of test compound that results in 150% activation of SIRT1): NA = not active in the assay; for Emax: read-out: % FOLD ACT. (percent maximum fold activation of SIRT1)
Excerpt: A mass spectrometry based assay was used to identify modulators of SIRT1 activity. The mass spectrometry based assay utilizes a peptide having 20 amino acid residues as follows: Ac-EE-K(biotin)-GQSTSSHSK(Ac)NleSTEG-K(5TMR)-EE-NH2 (SEQ ID NO: 1) wherein K(Ac) is an acetylated lysine residue and Nle is a norleucine. The peptide is labeled with the fluorophore 5TMR (excitation 540 nm/emission 580 nm) at the C-terminus. The sequence of the peptide substrate is based on p53 with several modifications. In addition, the methionine residue naturally present in the sequence was replaced with the norleucine because the methionine may be susceptible to oxidation during synthesis and purification.
Test compounds may be added to the reaction as described above. […] After the 25 minute incubation with SIRT1, 10 μL of 10% formic acid is added to stop the reaction. Reactions are sealed and frozen for later mass spec analysis. Determination of the mass of the substrate peptide allows for precise determination of the degree of acetylation (i.e. starting material) as compared to deacetylated peptide (product).
A control for inhibition of sirtuin activity is conducted by adding 1 μL of 500 mM nicotinamide as a negative control at the start of the reaction (e.g., permits determination of maximum sirtuin inhibition). A control for activation of sirtuin activity is conducted using 10 nM of sirtuin protein, with 1 μL of DMSO in place of compound, to determine the amount of deacetylation of the substrate at a given timepoint within the linear range of the assay. This timepoint is the same as that used for test compounds and, within the linear range, the endpoint represents a change in velocity.
For the above assay, SIRT1 protein was expressed and purified as follows. […] The protein was expressed by induction with 1 mM IPTG as an N-terminal His-tag fusion protein at 18° C. overnight and harvested at 30,000×g. Cells were lysed with lysozyme in lysis buffer (50 mM Tris-HCl, 2 mM Tris[2-carboxyethyl]phosphine (TCEP), 10 μM ZnCl2, 200 mM NaCl) and further treated with sonication for 10 min for complete lysis. The protein was purified over a Ni-NTA column (Amersham) and fractions containing pure protein were pooled, concentrated and run over a sizing column (Sephadex S200 26/60 global). The peak containing soluble protein was collected and run on an Ion-exchange column (MonoQ). Gradient elution (200 mM-500 mM NaCl) yielded pure protein. This protein was concentrated and dialyzed against dialysis buffer (20 mM Tris-HCl, 2 mM TCEP) overnight. The protein was aliquoted and frozen at −80° C. until further use.
Sirtuin modulating compounds that activated SIRT1 were identified using the assay described above and are shown below in Table 3. The EC1.5 values represent the concentration of test compounds that result in 150% activation of SIRT1. NT means that the compound was not tested using the indicated assay. NA means that the compound was not active in the indicated assay.

Row | Compound | EC1.5 (concentration of test compound that results in 150% activation of SIRT1) [NM] | Emax [%]
1 | O=C(Nc1ccccc1-c1nc2cc(CN3CCOCC3)cnc2s1)c1cccc(-c2nnn[nH]2)c1 [Compound 77] | 3920 | 204
2 | Cc1nc(-c2cccnc2)sc1C(=O)Nc1ccccc1-c1nc2cc(CN3CCC(N)CC3)cnc2s1 [Compound 78] | 565 | 297
3 | Cc1nc(-c2cccnc2)sc1C(=O)Nc1ccccc1-c1nc2cc(CN3CC[C@@H](N)C3)cnc2s1 [Compound 79] | 1220 | 240
4 | Cc1nc(-c2cccnc2)sc1C(=O)Nc1ccccc1-c1nc2cc(CN3CCOCC3)cnc2s1 [Compound 80] |  | 100
5 | Cc1nc(-c2cccnc2)sc1C(=O)Nc1ccccc1-c1nc2cc(CN3C[C@@H](C)N[C@@H](C)C3)cnc2s1 [Compound 81] |  | 131
6 | Cc1nc(-c2cccnc2)sc1C(=O)Nc1ccccc1-c1nc2cc(CN[C@H]3CCNC3)cnc2s1 [Compound 82] | 878 | 224
7 | Cc1nc(-c2cccnc2)sc1C(=O)Nc1ccccc1-c1nc2cc(CNC(C)C)cnc2s1 [Compound 83] |  | 100
8 | O=C(Nc1ccccc1-c1nc2cc(CN3CC[C@@H](F)C3)cnc2s1)c1cccc(-n2cnnn2)c1 [Compound 84] | 4270 | 166
9 | COCCN1CCN(Cc2cnc3sc(-c4ccccc4NC(=O)c4sc(-c5cccnc5)nc4C)nc3c2)CC1 [Compound 85] | 16700 | 182
10 | COCCN1CCN(Cc2cnc3sc(-c4ccccc4NC(=O)c4cc(-c5ccccc5)ccn4)nc3c2)CC1 [Compound 86] |  | 137
11 | COCCN1CCN(Cc2cnc3sc(-c4ccccc4NC(=O)c4cc(-c5ccccc5)ncn4)nc3c2)CC1 [Compound 87] | 955 | 166
12 | COCCN1CCN(Cc2cnc3sc(-c4ccccc4NC(=O)c4cc(-c5ccccc5)cn4C)nc3c2)CC1 [Compound 88] | 14 | 272
13 | Cc1c(C(=O)Nc2ccccc2-c2nc3cc(CN4CCNCC4)cnc3s2)oc2ccccc12 [Compound 89] | 235 | 239
14 | CN1CCN(Cc2cnc3sc(-c4ccccc4NC(=O)c4ccc5ccccc5n4)nc3c2)CC1 [Compound 90] | 190 | 221
15 | O=C(Nc1ccccc1-c1nc2cc(CN3CCNCC3)cnc2s1)c1nc2ccccc2s1 [Compound 91] | 4410 | 333
16 | CN(C)Cc1cnc2sc(-c3ccccc3NC(=O)c3cnc4ccccc4n3)nc2c1 [Compound 92] | 2810 | 163
17 | O=C(Nc1ccccc1-c1nc2cc(CN3CCOCC3)cnc2s1)c1nc2ccccc2s1 [Compound 93] | 510 | 236
18 | O=C(Nc1ccccc1-c1nc2cc(Cn3ccnc3)cnc2s1)c1ccc2ccccc2n1 [Compound 94] | 150 | 182
19 | O=C(Nc1ccccc1-c1nc2cc(CN3CCCC3)cnc2s1)c1ccc2ccccc2n1 [Compound 95] | 160 | 252
20 | O=C(Nc1ccccc1-c1nc2cc(CN3CCOCC3)cnc2s1)c1ccc2ccccc2c1 [Compound 96] | 1060 | 162

Row | Compound | EC1.5 (concentration of test compound that results in 150% activation of SIRT1) [NM] | Emax [%]
21 | O=C(Nc1ccccc1-c1nc2cc(CN3CCOCC3)cnc2s1)c1cccc2ccccc12 [Compound 97] | 3020 | 186
22 | O=C(Nc1ccccc1-c1nc2cc(CN3CCOCC3)cnc2s1)c1nc2ccccc2o1 [Compound 98] |  | 139
23 | O=C(Nc1ccccc1-c1nc2cc(CN3CCC(O)CC3)cnc2s1)c1ccc2ccccc2n1 [Compound 99] | 110 | 244
24 | O=C(Nc1ccccc1-c1nc2cc(CN3CC[C@H](F)C3)cnc2s1)c1ccc2ccccc2n1 [Compound 100] | 1440 | 201
25 | O=C(Nc1ccccc1-c1nc2cc(CN3CCC(F)(F)C3)cnc2s1)c1ccc2ccccc2n1 [Compound 101] |  | 133
26 | O=C(Nc1ccccc1-c1nc2cc(CN3CCC(F)(F)CC3)cnc2s1)c1ccc2ccccc2n1 [Compound 102] |  | 131
27 | O=C1CN(Cc2cnc3sc(-c4ccccc4NC(=O)c4ccc5ccccc5n4)nc3c2)CCN1 [Compound 103] | 230 | 273
28 | O=C(Nc1ccccc1-c1nc2cc(CN3CC[C@@H](O)C3)cnc2s1)c1ccc2ccccc2n1 [Compound 104] | 200 | 221
29 | COc1cc(C(=O)Nc2ccccc2-c2nc3cc(CN4CCOCC4)cnc3s2)nc2ccccc12 [Compound 105] | 1590 | 292
30 | O=C(Nc1ccccc1-c1nc2cc(CN3CCOCC3)cnc2s1)c1cnc2ccccc2c1 [Compound 106] | 69840 | 189
31 | O=C(Nc1ccccc1-c1nc2cc(CN3CCOCC3)cnc2s1)c1ccc2cccnc2n1 [Compound 107] | 500 | 219
32 | O=C(Nc1ccccc1-c1nc2cc(CN3CCSCC3)cnc2s1)c1ccc2ccccc2n1 [Compound 108] | 1060 | 178
33 | N[C@@H]1CCN(Cc2cnc3sc(-c4ccccc4NC(=O)c4ccc5ccccc5n4)nc3c2)C1 [Compound 109] | 270 | > 500
34 | O=C(Nc1ccccc1-c1nc2cc(CN3CC[C@H](O)C3)cnc2s1)c1ccc2ccccc2n1 [Compound 110] | 230 | 307
35 | O=C(Nc1ccccc1-c1nc2cc(CN3CCOCC3)cnc2s1)c1cn2ccccc2n1 [Compound 111] | 1610 | 427
36 | O=C(Nc1ccccc1-c1nc2cc(CN3CCOCC3)cnc2s1)c1cn2cccnc2n1 [Compound 112] | 2330 | 375
37 | O=C(Nc1ccccc1-c1nc2cc(CN3CC[C@@H](F)C3)cnc2s1)c1ccc2ccccc2n1 [Compound 113] | 370 | 232
38 | O=C(Nc1ccccc1-c1nc2cc(CN3CCC(F)CC3)cnc2s1)c1ccc2ccccc2n1 [Compound 114] |  | 146
39 | NC1CCN(Cc2cnc3sc(-c4ccccc4NC(=O)c4ccc5ccccc5n4)nc3c2)CC1 [Compound 115] | 620 | > 500
